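Protocol summary: plate cells (96-well), add compound at 5 concentrations, incubate 48 h, interpolate endpoints linearly. TGI is the concentration that stops growth completely.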
How the values were obtained:
Assay in all cases: NCI-60 cell line screen, 48 h
OVCAR-5 ovarian = system: OVCAR-5 ovarian
TK-10 renal = system: TK-10 renal
SK-MEL-5 melanoma = system: SK-MEL-5 melanoma
786-0 renal = system: 786-0 renal
U251 CNS = system: U251 CNS
HT29 colon = system: HT29 colon
SW-620 colon = system: SW-620 colon
OVCAR-4 ovarian = system: OVCAR-4 ovarian
KM20L2 colon = system: KM20L2 colon
K-562 leukemia = system: K-562 leukemia
NCI-H226 lung = system: NCI-H226 lung
XF 498 CNS = system: XF 498 CNS
A549 NSCLC = system: A549 NSCLC
SK-MEL-2 melanoma = system: SK-MEL-2 melanoma
OVCAR-8 ovarian = system: OVCAR-8 ovarian
COLO 205 colon = system: COLO 205 colon
SNB-75 CNS = system: SNB-75 CNS
LXFL 529 NSCLC = system: LXFL 529 NSCLC
UO-31 renal = system: UO-31 renal
SF-295 CNS = system: SF-295 CNS
SN12C renal = system: SN12C renal
HCC-2998 colon = system: HCC-2998 colon
NCI-H460 lung = system: NCI-H460 lung
KM12 colon = system: KM12 colon
CCRF-CEM leukemia = system: CCRF-CEM leukemia
HL-60(TB) leukemia = system: HL-60(TB) leukemia
SNB-78 CNS = system: SNB-78 CNS
A498 renal = system: A498 renal
HOP-92 NSCLC = system: HOP-92 NSCLC
UACC-257 melanoma = system: UACC-257 melanoma
OVCAR-3 ovarian = system: OVCAR-3 ovarian
CAKI-1 renal = system: CAKI-1 renal
HCT-15 colon = system: HCT-15 colon
HOP-62 NSCLC = system: HOP-62 NSCLC
M14 melanoma = system: M14 melanoma
LOX IMVI melanoma = system: LOX IMVI melanoma
UACC-62 melanoma = system: UACC-62 melanoma
MALME-3M melanoma = system: MALME-3M melanoma
M19-MEL melanoma = system: M19-MEL melanoma
MOLT-4 leukemia = system: MOLT-4 leukemia
NCI-H522 lung = system: NCI-H522 lung
ACHN renal = system: ACHN renal
RXF 393 renal = system: RXF 393 renal
SK-MEL-28 melanoma = system: SK-MEL-28 melanoma
NCI-H23 lung = system: NCI-H23 lung
SF-539 CNS = system: SF-539 CNS
IGROV1 ovarian = system: IGROV1 ovarian
EKVX NSCLC = system: EKVX NSCLC
SF-268 CNS = system: SF-268 CNS
DLD-1 colon = system: DLD-1 colon
RPMI-8226 leukemia = system: RPMI-8226 leukemia
HCT-116 colon = system: HCT-116 colon
SK-OV-3 ovarian = system: SK-OV-3 ovarian
SNB-19 CNS = system: SNB-19 CNS
SR leukemia = system: SR leukemia
DMS 273 small cell lung = system: DMS 273 small cell lung

Measured: TGI

O=C1CCC2(c3ccc(F)cc3)Nc3ncccc3N12 (stereo not drawn)
not listed: HCT-116 colon | SK-OV-3 ovarian | SNB-19 CNS | SR leukemia | DMS 273 small cell lung
> 100 µM: all other assays above

COc1ccc(/C=c2/sc3n(c2=O)NC2(CCCCC2)NN=3)cc1
not listed: U251 CNS | HL-60(TB) leukemia | A498 renal | UACC-257 melanoma | HCT-15 colon | HOP-62 NSCLC | ACHN renal | RPMI-8226 leukemia
> 100 µM: all other assays above

O=C1c2cccc(O)c2C(=O)c2cccc(O)c21
not listed: SK-MEL-5 melanoma | KM20L2 colon | HL-60(TB) leukemia | MALME-3M melanoma | SK-MEL-28 melanoma | SK-OV-3 ovarian | SR leukemia
> 100 µM: all other assays above
